Data from PubChem BioAssay (NCI).
“And” between values parts separate entries of the source, which are not always exact repeats. Equal values may be shown once.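 Cultured in 96-well plates, cells were exposed to test compound for 48 hours across five concentrations. Here, GI50 denotes the concentration required for 50% inhibition of growth. TGI marks complete inhibition of growth.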

Assays:
Assay in all cases: growth of human tumour cells (NCI), 48 h
[1] = test system: HCT-116 colon
[2] = test system: HOP-62 NSCLC
[3] = test system: LOX IMVI melanoma
[4] = test system: NCI-H23 lung
[5] = test system: OVCAR-3 ovarian
[6] = test system: RXF 393 renal
[7] = test system: TK-10 renal
[8] = test system: UACC-62 melanoma
[9] = test system: HCC-2998 colon
[10] = test system: MDA-MB-231 breast

In the case of `CN1NC2(CCCCC2)ON=C1c1ccccc1`, the TGI [1] is reported as over 100 µM, the TGI [2] is reported as over 100 µM and the TGI [3] is reported as over 100 µM. It also gave a TGI [4] of over 100 µM, a TGI [5] of over 100 µM and a TGI [6] of over 100 µM. It also gave a TGI [7] of over 100 µM and a TGI [8] of over 100 µM.
For `CC(=O)O[C@H]1CC[C@@]2(C)C(=CC[C@H]3[C@@H]4C/C(=C\c5cccc(OCCN6CCOCC6)c5)[C@H](OC(C)=O)[C@@]4(C)CC[C@@H]32)C1`, the GI50 [9] was 5.32 µM, the TGI [9] was 17.6 µM and the GI50 [1] was 4.1 µM. It also gave a TGI [1] of 15.9 µM, a GI50 [2] of 6.29 µM and a TGI [2] of 19.5 µM. For the same compound, the GI50 [3] was 5.94 µM, the TGI [3] was 18.4 µM and the GI50 [10] was 3.12 µM. For the same compound, the TGI [10] was 13.3 µM, the GI50 [4] was 6.97 µM and the TGI [4] was 23.8 µM. It also gave a GI50 [5] of 44.7 µM, a TGI [5] of over 100 µM and a GI50 [7] of 11.6 µM. The TGI [7] was 48.7 µM, the GI50 [8] was 6.1 µM and the TGI [8] was 19.1 µM.
In the case of `CC(=O)O[C@H]1CC[C@@]2(C)C(=CC[C@H]3C4=CC=C(C(C)=O)[C@@]4(C)CCC32)C1` (some centres not stated), the TGI [9] is reported as over 100 µM, the TGI [1] is reported as 36.9 µM and the TGI [2] is reported as over 100 µM. The TGI [3] was 43.8 µM, the TGI [5] was over 100 µM and the TGI [6] was 63.7 µM. The TGI [7] was over 100 µM and the TGI [8] was 46.8 µM.
With `O=C(O)/C(=C/c1c(O)ccc2ccccc12)c1csc(-c2nc(/C(=C\c3c(O)ccc4ccccc34)C(=O)O)cs2)n1` the TGI [9] was 32.4 µM, the TGI [1] was 23.3 µM and the TGI [2] was 22.2 µM. It also gave a TGI [3] of 43.4 µM, a TGI [4] of 27.1 µM and a TGI [5] of 31.3 µM. It also gave a TGI [6] of 14 µM, a TGI [7] of 58 µM and a TGI [8] of 23.3 µM.
In the case of `COc1ccc2c(c1OC)C1=C(C2=O)c2cc3c(cc2CCN1)OCO3`, the TGI [9] is reported as 75.5 µM, the TGI [1] is reported as over 100 µM and the TGI [2] is reported as over 100 µM. It also gave a TGI [3] of 61.1 µM, a TGI [4] of over 100 µM and a TGI [5] of 90.7 µM. The TGI [6] was over 100 µM, the TGI [7] was over 100 µM and the TGI [8] was over 100 µM.
In the case of `CC(C)(C)NCc1cc(C(C)(C)C)cc(-c2ccc(Cl)cc2)c1O`, the TGI [9] is reported as 29.6 µM, the TGI [1] is reported as 26 µM and the TGI [2] is reported as 20.1 µM. It also gave a TGI [10] of 24.8 µM, a TGI [4] of 29.4 µM and a TGI [5] of 29.5 µM. For the same compound, the TGI [7] was 26 µM and the TGI [8] was 32 µM.
`COc1cc2noc(-c3ccccc3)c2cc1OC` showed a TGI [9] of over 100 µM, a TGI [1] of over 100 µM and a TGI [2] of over 100 µM. The TGI [3] was over 100 µM, the TGI [6] was 73.8 µM and the TGI [7] was over 100 µM. It also gave a TGI [8] of over 100 µM.
In the case of `COC1OC(CO)C(O)C(O)C1Br` (configuration not stated), the TGI [9] is reported as over 100 µM, the TGI [1] is reported as over 100 µM and the TGI [2] is reported as over 100 µM. It also gave a TGI [3] of over 100 µM, a TGI [4] of over 100 µM and a TGI [5] of over 100 µM. For the same compound, the TGI [6] was over 100 µM, the TGI [7] was over 100 µM and the TGI [8] was over 100 µM.
In the case of `Cn1ncc2c(N)nc(N3CCCCC3)nc21`, the GI50 [9] is reported as 18.6 µM, the TGI [9] is reported as 58.6 µM and the GI50 [1] is reported as 45.3 µM. The TGI [1] was over 100 µM, the GI50 [2] was 51.9 µM and the TGI [2] was over 100 µM. For the same compound, the GI50 [3] was 22.7 µM, the TGI [3] was 51.4 µM and the GI50 [4] was 28.4 µM. The TGI [4] was over 100 µM, the GI50 [5] was 19.9 µM and the TGI [5] was 71.7 µM. It also gave a GI50 [6] of 18.2 µM, a TGI [6] of 58.7 µM and a GI50 [7] of 22.9 µM. It also gave a TGI [7] of 77.8 µM, a GI50 [8] of 19.6 µM and a TGI [8] of 37.3 µM.
Work on `Cn1c(=O)nc2n(-c3cccc(F)c3)c3ccccc3nc-2c1=O` yielded a TGI [9] of 39.6 µM, a TGI [1] of 77.8 µM and a TGI [2] of over 100 µM. The TGI [3] was 61.8 µM, the TGI [4] was 35.2 µM and the TGI [5] was 21.5 µM. The TGI [6] was over 100 µM, the TGI [7] was over 100 µM and the TGI [8] was 13 µM.
`Cc1sc(C)c(Cc2c(C)sc(C)c2CCl)c1CCl` showed a GI50 [1] of over 100 µM, a TGI [1] of over 100 µM and a GI50 [2] of over 100 µM. For the same compound, the TGI [2] was over 100 µM, the GI50 [3] was over 100 µM and the TGI [3] was over 100 µM. The GI50 [10] was over 100 µM, the TGI [10] was over 100 µM and the GI50 [4] was over 100 µM. It also gave a TGI [4] of over 100 µM, a GI50 [5] of over 100 µM and a TGI [5] of over 100 µM. The GI50 [6] was over 100 µM, the TGI [6] was over 100 µM and the GI50 [7] was over 100 µM. The TGI [7] was over 100 µM.
Work on `NC(=O)N/N=C/C(/C=N/NC(N)=O)[N+](=O)[O-]` yielded a TGI [1] of over 100 µM, a TGI [2] of over 100 µM and a TGI [3] of over 100 µM. It also gave a TGI [4] of over 100 µM, a TGI [5] of over 100 µM and a TGI [6] of over 100 µM. It also gave a TGI [7] of over 100 µM and a TGI [8] of over 100 µM.
`C=C=C(CC)C(C(=O)OC)N(CC)CC` (configuration not stated) gave a TGI [1] of over 100 µM, a TGI [2] of over 100 µM and a TGI [3] of over 100 µM. The TGI [4] was over 100 µM, the TGI [5] was over 100 µM and the TGI [6] was over 100 µM. The TGI [7] was over 100 µM and the TGI [8] was over 100 µM.
`CN1c2ccccc2N(C)C2C1N(C)c1ccccc1N2C` (configuration not stated) gave a TGI [9] of 30.9 µM, a TGI [1] of 42.4 µM and a TGI [2] of over 100 µM. It also gave a TGI [4] of 74.7 µM, a TGI [5] of 50.2 µM and a TGI [6] of 32.6 µM. For the same compound, the TGI [7] was over 100 µM and the TGI [8] was 24.9 µM.
In the case of `CCOC(=O)C(Cc1c[nH]c2ccc(N(CCCl)CCCl)cc12)(NC(C)=O)C(=O)OCC`, the GI50 [9] is reported as 12.1 µM and 13.4 µM, the TGI [9] is reported as 30.2 µM and 36.4 µM and the GI50 [1] is reported as 11.7 µM and 10.9 µM. The TGI [1] was 31.3 µM and 37.9 µM, the GI50 [2] was 14.4 µM and 10.1 µM and the TGI [2] was 51.7 µM and 66.8 µM. For the same compound, the GI50 [3] was 7.09 µM and 4.88 µM, the TGI [3] was 24.6 µM and 35.3 µM and the GI50 [10] was 24.6 µM and 33.3 µM. For the same compound, the TGI [10] was 81.2 µM and 575 µM, the GI50 [4] was 5.99 µM and 9.89 µM and the TGI [4] was 31.2 µM and 64.8 µM. For the same compound, the GI50 [5] was 23.4 µM and 14.4 µM, the TGI [5] was 65.7 µM and 35.1 µM and the GI50 [7] was 22.2 µM and 17.6 µM. For the same compound, the TGI [7] was 60.5 µM and 62.7 µM, the GI50 [8] was 12.1 µM and the TGI [8] was 26 µM.
`COc1cc2c3c(c1)c1cc(OC)c(OC)cc1c[n+]3CC2` was tested, and the GI50 [1] was 40.5 µM, the TGI [1] was 50 µM and > 100 µM and the GI50 [2] was 3.24 µM. For the same compound, the TGI [2] was 50 µM and > 100 µM, the GI50 [3] was 35.5 µM and the TGI [3] was 50 µM and > 100 µM. The GI50 [10] was over 100 µM, the TGI [10] was over 100 µM and the TGI [4] was 45.6 µM and > 100 µM. For the same compound, the GI50 [5] was 17.7 µM, the TGI [5] was 50 µM and > 100 µM and the TGI [6] was 50 µM and > 100 µM. The GI50 [7] was over 100 µM, the TGI [7] was over 100 µM and the GI50 [8] was 28.7 µM. For the same compound, the TGI [8] was 50 µM and > 100 µM.
`CO/C1=C\C(C)=C\C(C)C(O)C(C)C/C(C)=C/C=C/C(OC)C(C(C)C(O)C(C)C2(O)CC(O)C(C)C(C(C)C)O2)OC1=O` (configuration not stated) was tested, and the TGI [9] was 12.2 µM, the TGI [2] was 0.000847 µM and the TGI [3] was 2.64e-05 µM. It also gave a TGI [4] of 15 µM, a GI50 [6] of 11.1 µM and a TGI [7] of 29.5 µM. For the same compound, the TGI [8] was 0.00785 µM and 0.0254 µM.
Work on `CCOC(=O)C1(Cc2ccccc2)CCCCCN1` (configuration not stated) yielded a TGI [9] of over 100 µM, a TGI [2] of over 100 µM and a TGI [3] of over 100 µM. The TGI [4] was over 100 µM, the TGI [5] was over 100 µM and the TGI [6] was over 100 µM. It also gave a TGI [7] of over 100 µM and a TGI [8] of over 100 µM.
Work on `COc1c(C(=O)O)oc2c(OC)cccc12` yielded a TGI [9] of over 100 µM, a TGI [1] of over 100 µM and a TGI [2] of over 100 µM. The TGI [3] was over 100 µM, the TGI [4] was over 100 µM and the TGI [5] was over 100 µM. For the same compound, the TGI [7] was over 100 µM and the TGI [8] was over 100 µM.
`O=C1C[C@@H]2C(COC(=O)c3ccccc3)N(OCc3ccccc3)C[C@@H]2O1` (some centres not stated) showed a TGI [9] of over 100 µM, a TGI [1] of over 100 µM and a TGI [2] of over 100 µM. It also gave a TGI [3] of over 100 µM, a TGI [4] of over 100 µM and a TGI [5] of over 100 µM. It also gave a TGI [6] of over 100 µM, a TGI [7] of over 100 µM and a TGI [8] of over 100 µM.
With `Cc1c(C(=O)c2ccccc2C(=O)O)c2ccccc2n1C` the TGI [9] was over 100 µM, the TGI [1] was over 100 µM and the TGI [2] was over 100 µM. For the same compound, the TGI [4] was over 100 µM, the TGI [5] was over 100 µM and the TGI [6] was over 100 µM. The TGI [7] was over 100 µM and the TGI [8] was over 100 µM.
